Measurements from patent US11465975B2, “Certain chemical entities, compositions, and methods” (NeuPharma, Inc., priority 2018, dated 2022).
Where “and” joins values, the source holds several entries; their conditions need not be identical. Equal entries are not always repeated.

Key:
Type in all cases: physicochemical
[1] = Competitive test of Form I and Form VI (suspension equilibration, XRPD check); conditions: for Check result at 7 days (form of residual solid, XRPD): room temperature; for Check result at 21 days (form of residual solid, XRPD): 14 days RT then 40° C.; for Check result at 14 days (form of residual solid, XRPD): 7 days RT then 40° C.
Description: X-ray powder diffraction (XRD) patterns were obtained on a Bruker D8 Advance. A CuK source (=1.54056 angstrom) operating minimally at 40 kV and 40 mA scans each sample between 4 and 40 degrees 2-theta. The step size is 0.05° C. and scan speed is 0.5 second per step.
Two polymorphic forms of the compound of Formula I, Form I and Form VI, were suspended at the ratio of 1:1 in various solvents and equilibrated at room temperature for a period of time. The forms of the residual solid were checked at 7 days. If still a mixed form, continued to equilibrate at room temperature or 40° C. The solvents were EtOAc, iPoAc, Acetone, MEK, EtOH, IPA, IPE, MTBE, Hexane and Heptane.
XRPD profiles were acquired at the beginning and end of the experiment and compared to XRPD patterns of the known forms.

[2] = Preliminary accelerated stability test of Form VI (HPLC, XRPD, DSC); conditions: for Assay % / Average assay (%) / Peak area % / Total impurity (%): solid; for Assay % / Average assay (%) / Peak area %: HPLC; for Total impurity (%): peak area normalized method
Description: (§1) HPLCs were preformed using the following instrument and/or conditions.
(§2) Form VI of the compound of Formula I was used for the preliminary accelerated stability test. The samples were exposed to different stressed condition (40° C./75% RH and 60° C.) for 2 weeks. Standard controls were placed at −20° C. Samples and corresponding standard controls were pulled out for XRPD, DSC and HPLC analysis at 0 day, 1st week and 2nd week, respectively. The samples placed under condition without humidity were closed tightly with cap. The samples placed under humidity condition were just covered with aluminum foil with pinholes. HPLC steps were performed as described in Example 14.

[3] = Preliminary accelerated stability test of Form I, non-micronized and micronized (HPLC, XRPD, DSC); design: RRT 1.09: unit not given here; conditions: for Stability tested by HPLC, XRPD and DSC (degradation and crystal conversion): 40° C./75% RH and 60° C. for 2 weeks; for Assay % / Average Total impurity (%) / Average assay (%) / Peak area % / RRT 1.09 / Total impurity (%): solid, HPLC
Description: as §1
as §2, with “Form” for “Form VI of the compound of Formula”, “I (both non-micronized and micronized)” for “I”

C=CC(=O)Nc1cccc(-c2cccc3cnc(Nc4ccc(N5CCN(CCO)CC5)c(F)c4F)nc23)c1 [Form I and Form VI, N-(3-(2-((2,3-difluoro-4-(4-(2-hydroxyethyl)piperazin-1-yl)phenyl)amino)quinazolin-8-yl)phenyl)acrylamide]
Check result at 7 days (form of residual solid, XRPD) ([1]; 1:1 suspension in EtOH): Form III and Form VI | Check result at 7 days (form of residual solid, XRPD) ([1]; 1:1 suspension in IPA): Form VI | Check result at 7 days (form of residual solid, XRPD) ([1]; 1:1 suspension in MEK): Form I | Check result at 21 days (form of residual solid, XRPD) ([1]; 1:1 suspension in MTBE): Form I | Check result at 7 days (form of residual solid, XRPD) ([1]; 1:1 suspension in acetone): Form I | Check result at 14 days (form of residual solid, XRPD) ([1]; 1:1 suspension in ethyl acetate (EtOAc)): Form I | Check result at 21 days (form of residual solid, XRPD) ([1]; 1:1 suspension in heptane): Mixed | Check result at 21 days (form of residual solid, XRPD) ([1]; 1:1 suspension in hexane): Mixed | Check result at 14 days (form of residual solid, XRPD) ([1]; 1:1 suspension in isopropyl acetate (iPoAc)): Form I | Check result at 21 days (form of residual solid, XRPD) ([1]; 1:1 suspension in isopropyl ether (IPE)): Mixed

C=CC(=O)Nc1cccc(-c2cccc3cnc(Nc4ccc(N5CCN(CCO)CC5)c(F)c4F)nc23)c1 [Form VI, N-(3-(2-((2,3-difluoro-4-(4-(2-hydroxyethyl)piperazin-1-yl)phenyl)amino)quinazolin-8-yl)phenyl)acrylamide]
Stability tested by HPLC, XRPD and DSC (degradation and crystal conversion) ([2]; 40° C./75% RH and 60° C. for 2 weeks): No significant degradation and crystal conversion were detected | Assay % ([2]; 40° C./75% RH, 7 days): 91.50% and 91.85% | Average assay (%) ([2]; 40° C./75% RH, 7 days): 91.67% | Peak area % ([2]; 40° C./75% RH, 7 days): 99.0% and 99.1% | Total impurity (%) ([2]; 40° C./75% RH, 7 days): 0.98% and 0.95% | Assay % ([2]; 40° C./75% RH, 14 days): 92.13% and 91.45% | Average assay (%) ([2]; 40° C./75% RH, 14 days): 91.79% | Peak area % ([2]; 40° C./75% RH, 14 days): 99.0% | Total impurity (%) ([2]; 40° C./75% RH, 14 days): 0.99% and 0.96% | Assay % ([2]; 60° C., 7 days): 91.61% and 93.76% | Average assay (%) ([2]; 60° C., 7 days): 92.68% | Peak area % ([2]; 60° C., 7 days): 98.9% and 99.0% | Total impurity (%) ([2]; 60° C., 7 days): 1.10% and 1.04% | Assay % ([2]; 60° C., 14 days): 91.82% and 91.77% | Average assay (%) ([2]; 60° C., 14 days): 91.80% | Peak area % ([2]; 60° C., 14 days): 99.0% and 99.1% | Total impurity (%) ([2]; 60° C., 14 days): 1.01% and 0.94% | Assay % ([2]; −20° C. (standard control)): 92.15% and 92.28% | Average assay (%) ([2]; −20° C. (standard control)): 92.21% | Peak area % ([2]; −20° C. (standard control)): 99.0% | Total impurity (%) ([2]; −20° C. (standard control)): 0.95% and 0.98%

C=CC(=O)Nc1cccc(-c2cccc3cnc(Nc4ccc(N5CCN(CCO)CC5)c(F)c4F)nc23)c1 [micronized Form I, N-(3-(2-((2,3-difluoro-4-(4-(2-hydroxyethyl)piperazin-1-yl)phenyl)amino)quinazolin-8-yl)phenyl)acrylamide]
Stability tested by HPLC, XRPD and DSC (degradation and crystal conversion) [3]: No significant degradation and crystal conversion were detected | Assay % ([3]; 40° C./75% RH, 7 d): 97.67% and 97.30% | Average Total impurity (%) ([3]; 40° C./75% RH, 7 d): 0.86% | Average assay (%) ([3]; 40° C./75% RH, 7 d): 97.48% | Peak area % ([3]; 40° C./75% RH, 7 d): 99.14% | RRT 1.09 ([3]; 40° C./75% RH, 7 d): 0.029 and 0.024 | Total impurity (%) ([3]; 40° C./75% RH, 7 d): 0.86% | Assay % ([3]; 40° C./75% RH, 14 d): 96.20% and 98.00% | Average Total impurity (%) ([3]; 40° C./75% RH, 14 d): 0.88% | Average assay (%) ([3]; 40° C./75% RH, 14 d): 97.10% | Peak area % ([3]; 40° C./75% RH, 14 d): 99.11% and 99.12% | RRT 1.09 ([3]; 40° C./75% RH, 14 d): 0.028 | Total impurity (%) ([3]; 40° C./75% RH, 14 d): 0.89% and 0.88% | Assay % ([3]; 60° C., 7 d): 98.46% and 97.35% | Average Total impurity (%) ([3]; 60° C., 7 d): 0.85% | Average assay (%) ([3]; 60° C., 7 d): 97.90% | Peak area % ([3]; 60° C., 7 d): 99.15% | RRT 1.09 ([3]; 60° C., 7 d): 0.022 and 0.028 | Total impurity (%) ([3]; 60° C., 7 d): 0.85% | Assay % ([3]; 60° C., 14 d): 98.52% and 98.23% | Average Total impurity (%) ([3]; 60° C., 14 d): 0.87% | Average assay (%) ([3]; 60° C., 14 d): 98.37% | Peak area % ([3]; 60° C., 14 d): 99.12% and 99.13% | RRT 1.09 ([3]; 60° C., 14 d): 0.027 and 0.028 | Total impurity (%) ([3]; 60° C., 14 d): 0.88% and 0.87% | Assay % ([3]; RT): 98.74% and 98.36% | Average Total impurity (%) ([3]; RT): 0.84% | Average assay (%) ([3]; RT): 98.55% | Peak area % ([3]; RT): 99.14% and 99.18% | RRT 1.09 ([3]; RT): 0.029 and 0.024 | Total impurity (%) ([3]; RT): 0.86% and 0.82%

C=CC(=O)Nc1cccc(-c2cccc3cnc(Nc4ccc(N5CCN(CCO)CC5)c(F)c4F)nc23)c1 [non-micronized Form I, N-(3-(2-((2,3-difluoro-4-(4-(2-hydroxyethyl)piperazin-1-yl)phenyl)amino)quinazolin-8-yl)phenyl)acrylamide]
Stability tested by HPLC, XRPD and DSC (degradation and crystal conversion) [3]: No significant degradation and crystal conversion were detected | Assay % ([3]; 40° C./75% RH, 7 d): 98.28% and 98.59% | Average Total impurity (%) ([3]; 40° C./75% RH, 7 d): 0.88% | Average assay (%) ([3]; 40° C./75% RH, 7 d): 98.44% | Peak area % ([3]; 40° C./75% RH, 7 d): 99.12% | RRT 1.09 ([3]; 40° C./75% RH, 7 d): 0.027 and 0.032 | Total impurity (%) ([3]; 40° C./75% RH, 7 d): 0.88% | Assay % ([3]; 40° C./75% RH, 14 d): 98.24% and 97.53% | Average Total impurity (%) ([3]; 40° C./75% RH, 14 d): 0.86% | Average assay (%) ([3]; 40° C./75% RH, 14 d): 97.88% | Peak area % ([3]; 40° C./75% RH, 14 d): 99.14% | RRT 1.09 ([3]; 40° C./75% RH, 14 d): 0.026 and 0.027 | Total impurity (%) ([3]; 40° C./75% RH, 14 d): 0.86% | Assay % ([3]; 60° C., 7 d): 95.99% and 98.78% | Average Total impurity (%) ([3]; 60° C., 7 d): 0.85% | Average assay (%) ([3]; 60° C., 7 d): 97.38% | Peak area % ([3]; 60° C., 7 d): 99.15% | RRT 1.09 ([3]; 60° C., 7 d): 0.030 and 0.028 | Total impurity (%) ([3]; 60° C., 7 d): 0.85% | Assay % ([3]; 60° C., 14 d): 98.38% and 99.25% | Average Total impurity (%) ([3]; 60° C., 14 d): 0.85% | Average assay (%) ([3]; 60° C., 14 d): 98.81% | Peak area % ([3]; 60° C., 14 d): 99.17% and 99.14% | RRT 1.09 ([3]; 60° C., 14 d): 0.028 | Total impurity (%) ([3]; 60° C., 14 d): 0.83% and 0.86% | Assay % ([3]; RT): 98.98% and 99.18% | Average Total impurity (%) ([3]; RT): 0.84% | Average assay (%) ([3]; RT): 99.08% | Peak area % ([3]; RT): 99.18% and 99.14% | RRT 1.09 ([3]; RT): 0.027 | Total impurity (%) ([3]; RT): 0.82% and 0.86%
